This note sets out measurements from US8895592B2, “Compounds as cannabinoid receptor ligands” (priority 2008, dated 2014).

The target in experiment [1] is T1, rat CB2 receptors (Rattus norvegicus (Rat), UniProt Q9QZN9). The experiment in a line: rat CB2 radioligand binding assay ([3H]CP 55,940 competition). The settings on record: HEK293 membranes, 0.5 nM [3H]CP 55,940. As for the experimental part: HEK293 cells stably expressing rat CB2 receptors were grown until a confluent monolayer was formed. Briefly, the cells were harvested and homogenized in TE buffer (50 mM Tris-HCl, 1 mM MgCl2, and 1 mM EDTA) using a polytron for 2×10 second bursts in the presence of protease inhibitors, followed by centrifugation at 45,000×g for 20 minutes. The final membrane pellet was re-homogenized in storage buffer (50 mM Tris-HCl, 1 mM MgCl2, and 1 mM EDTA and 10% sucrose) and frozen at −78° C. until used. Saturation binding reactions were initiated by the addition of membrane preparation (protein concentration of 20 μg/well for rat CB2) into wells of a deep well plate containing [^3H]CP 55,940 (120 Ci/mmol, a nonselective CB agonist commercially available from Tocris) in assay buffer (50 mM Tris, 2.5 mM EDTA, 5 mM MgCl2, and 0.5 mg/mL fatty acid free BSA, pH 7.4). After 45 min incubation at 30° C., binding reaction was terminated by the addition of 300 μl/well of cold assay buffer followed by rapid vacuum filtration through a UniFilter-96 GF/C filter plates (pre-soaked in 1 mg/mL BSA for 2 hours). The bound activity was counted in a TopCount using Microscint-20. Saturation experiments were conducted with twelve concentrations of [^3H]CP 55,940 ranging from 0.01 to 8 nM. Competition experiments were conducted with 0.5 nM [^3H]CP 55,940 and five concentrations of displacing ligands selected from the range of 0.01 nM to 10 μM. The addition of 10 μM unlabeled CP 55,940 (Tocris, Ellisville, Mo.) was used to assess nonspecific binding.
T1 sequence (Q9QZN9 whole entry): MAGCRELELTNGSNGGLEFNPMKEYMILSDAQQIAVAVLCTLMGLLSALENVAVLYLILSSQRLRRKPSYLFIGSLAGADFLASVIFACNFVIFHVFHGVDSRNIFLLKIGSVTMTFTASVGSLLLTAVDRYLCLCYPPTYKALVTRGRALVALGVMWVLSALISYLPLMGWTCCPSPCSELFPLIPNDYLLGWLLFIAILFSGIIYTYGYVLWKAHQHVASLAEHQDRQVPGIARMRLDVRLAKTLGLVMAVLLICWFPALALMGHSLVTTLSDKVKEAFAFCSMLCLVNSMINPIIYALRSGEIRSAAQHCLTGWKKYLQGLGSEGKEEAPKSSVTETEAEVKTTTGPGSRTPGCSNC

The next experiment deals with human CB2 receptors (Homo sapiens (Human), UniProt P34972). As to the kind of experiment: human CB2 radioligand binding assay ([3H]CP 55,940 competition). Conditions: HEK293 membranes, 0.5 nM [3H]CP 55,940. As for the experimental part: HEK293 cells stably expressing human CB2 receptors were grown until a confluent monolayer was formed. Briefly, the cells were harvested and homogenized in TE buffer (50 mM Tris-HCl, 1 mM MgCl2, and 1 mM EDTA) using a polytron for 2×10 second bursts in the presence of protease inhibitors, followed by centrifugation at 45,000×g for 20 minutes. The final membrane pellet was re-homogenized in storage buffer (50 mM Tris-HCl, 1 mM MgCl2, and 1 mM EDTA and 10% sucrose) and frozen at −78° C. until used. Saturation binding reactions were initiated by the addition of membrane preparation (protein concentration of 5 μg/well for human CB2) into wells of a deep well plate containing [^3H]CP 55,940 (120 Ci/mmol, a nonselective CB agonist commercially available from Tocris) in assay buffer (50 mM Tris, 2.5 mM EDTA, 5 mM MgCl2, and 0.5 mg/mL fatty acid free BSA, pH 7.4). After 90 min incubation at 30° C., binding reaction was terminated by the addition of 300 μL/well of cold assay buffer followed by rapid vacuum filtration through a UniFilter-96 GF/C filter plates (pre-soaked in 1 mg/mL BSA for 2 hours). The bound activity was counted in a TopCount using Microscint-20. Saturation experiments were conducted with twelve concentrations of [^3H]CP 55,940 ranging from 0.01 to 8 nM. Competition experiments were conducted with 0.5 nM [^3H]CP 55,940 and five concentrations (0.01 nM to 10 μM) of displacing ligands. The addition of 10 μM unlabeled CP 55,940 (Tocris, Ellisville, Mo.) was used to assess nonspecific binding.
human CB2 receptors, sequence (P34972 whole entry): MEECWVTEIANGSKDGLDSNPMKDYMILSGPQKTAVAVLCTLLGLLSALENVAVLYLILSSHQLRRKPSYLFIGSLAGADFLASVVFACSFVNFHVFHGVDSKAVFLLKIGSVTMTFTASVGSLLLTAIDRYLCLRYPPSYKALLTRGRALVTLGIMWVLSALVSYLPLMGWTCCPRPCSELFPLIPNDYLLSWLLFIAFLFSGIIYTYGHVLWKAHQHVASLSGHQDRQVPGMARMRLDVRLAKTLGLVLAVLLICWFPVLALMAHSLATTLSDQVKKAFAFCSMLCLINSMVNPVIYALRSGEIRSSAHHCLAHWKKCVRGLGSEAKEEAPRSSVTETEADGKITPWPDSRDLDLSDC

Experiment [2] has as its target T1, rat CB2 receptors. As to the kind of experiment: rat CB2 cyclase functional assay (HitHunter cAMP). Format: cell-based. Conditions: HEK cells, forskolin 18 μM. As for the experimental part: The cyclase functional assays were performed using the HitHunter™ cAMP assay kit from DiscoveRx (Fremont, Calif.) according to vendor's protocol. Briefly, HEK cells expressing CB2 or CB1 receptors (rat or human) were detached using cell dissociation buffer (Invitrogen, Carlsbad, Calif.), dispersed and placed in suspension at 10,000 cells per well in 96 well plates prior to the assay. Cell suspensions were incubated at 37° C. for 20 min with variable concentrations of test ligands and or 10 μM CP 55,940-positive control in the presence of a fixed concentration of forskolin (18 μM for rat CB2 and 37 μM for rat CB1) in Dulbescco's phosphate-buffered saline (Invitrogen, Carlsbad, Calif.) supplemented with bovine serum albumin (0.01% final concentration). The reactions were terminated by the addition of lysis buffer and the luminescence was detected following the procedure according to the manufacturer's instructions. EC50 values were calculated using sigmoidal dose-response curve fitting from Prism (GraphPad).

As for `CC(C)Cn1cc(C(C)(C)C)s/c1=N\C(=O)c1cc(Br)ccc1OC[C@@H]1CCCN1C` [Example 1, 5-bromo-N-[(2Z)-5-tert-butyl-3-isobutyl-1,3-thiazol-2(3H)-ylidene]-2-{[(2S)-1-methylpyrrolidin-2-yl]methoxy}benzamide], the Ki on rat CB2 receptors [1] came out at 19 nM; on human CB2 receptors, 27 nM. Moreover, the EC50 at rat CB2 receptors [2] was 0.75 nM.
The corresponding values for `CCCCn1cc(C(C)(C)C)s/c1=N\C(=O)c1cc(Cl)ccc1OCC(N)=O` [Example 2, 2-(2-amino-2-oxoethoxy)-N-[(2Z)-3-butyl-5-tert-butyl-1,3-thiazol-2(3H)-ylidene]-5-chlorobenzamide] are 1.1 nM, 3.1 nM and 0.07 nM.
Taken in the same sequence, the figures for `CC(C)Cn1cc(C(C)(C)C)s/c1=N\C(=O)c1cc(C(F)(F)F)ccc1OCc1ccco1` [Example 3, N-[(2Z)-5-tert-butyl-3-isobutyl-1,3-thiazol-2(3H)-ylidene]-2-(2-furylmethoxy)-5-(trifluoromethyl)benzamide] were 8.7 nM, 7.4 nM and 1.9 nM.
The corresponding values for `CC(C)Cn1cc(C(C)(C)C)s/c1=N\C(=O)c1cc(Cl)ccc1OCC1CCO1` (stereo not drawn) [Example 4, N-[(2Z)-5-tert-butyl-3-isobutyl-1,3-thiazol-2(3H)-ylidene]-5-chloro-2-(oxetan-2-ylmethoxy)benzamide] are 5.2 nM, 9 nM and 0.23 nM.
On to `CC(C)Cn1cc(C(C)(C)C)s/c1=N\C(=O)c1cc(C(F)(F)F)ccc1OC[C@@H]1CCCN1C` [Example 5, N-[(2Z)-5-tert-butyl-3-isobutyl-1,3-thiazol-2(3H)-ylidene]-2-{[(2S)-1-methylpyrrolidin-2-yl]methoxy}-5-(trifluoromethyl)benzamide], for which the values for the Ki at rat CB2 receptors [1] and on human CB2 receptors were 18 nM and 39 nM, respectively. In addition, the half-maximal effective concentration (EC50) at rat CB2 receptors [2] came out at 1.2 nM.
`CC(C)Cn1cc(C(C)(C)C)s/c1=N\C(=O)c1cc(C(F)(F)F)ccc1OCCN1CCCC1` [Example 7, N-[(2Z)-5-tert-butyl-3-isobutyl-1,3-thiazol-2(3H)-ylidene]-2-(2-pyrrolidin-1-ylethoxy)-5-(trifluoromethyl)benzamide]: the inhibitory constant (Ki) on rat CB2 receptors [1] was 12 nM; on human CB2 receptors it was 32 nM. Moreover, on rat CB2 receptors [2], the EC50 was determined as 1.3 nM.
The corresponding values for `CC(C)Cn1cc(C(C)(C)C)s/c1=N\C(=O)c1cc(C(F)(F)F)ccc1OCC1CCOC1` (stereo not drawn) [Example 8, N-[(2Z)-5-tert-butyl-3-isobutyl-1,3-thiazol-2(3H)-ylidene]-2-(tetrahydrofuran-3-ylmethoxy)-5-(trifluoromethyl)benzamide] are 2.4 nM, 5 nM and 0.058 nM.
As to `CCCCn1cc(C(C)(C)C)s/c1=N\C(=O)c1cc(C(F)(F)F)ccc1OC[C@@H]1CCCN1C` [Example 9, N-[(2Z)-3-butyl-5-tert-butyl-1,3-thiazol-2(3H)-ylidene]-2-{[(2S)-1-methylpyrrolidin-2-yl]methoxy}-5-(trifluoromethyl)benzamide], the inhibitory constant (Ki) at rat CB2 receptors [1] was 7.7 nM; on human CB2 receptors, 9.2 nM. Also, the EC50 at rat CB2 receptors [2] worked out at 0.97 nM.
On to `CN1CCC[C@H]1COc1ccc(C(F)(F)F)cc1C(=O)/N=c1\sc(C(C)(C)C)cn1CC1(O)CCC1` [Example 11, N-[(2Z)-5-tert-butyl-3-[(1-hydroxycyclobutyl)methyl]-1,3-thiazol-2(3H)-ylidene]-2-{[(2S)-1-methylpyrrolidin-2-yl]methoxy}-5-(trifluoromethyl)benzamide], for which the inhibition constant Ki on rat CB2 receptors [1] came to 32 nM; at human CB2 receptors, 95 nM. Besides, on rat CB2 receptors [2], the EC50 worked out at 0.41 nM.
The corresponding values for `CC(C)Cn1cc(C(C)(C)C)s/c1=N\C(=O)c1cc(C(F)(F)F)ccc1OC[C@@H]1CCN1C` [Example 12, N-[(2Z)-5-tert-butyl-3-isobutyl-1,3-thiazol-2(3H)-ylidene]-2-{[(2S)-1-methylazetidin-2-yl]methoxy}-5-(trifluoromethyl)benzamide] are 26 nM, 37 nM and 3.5 nM.
On to `CC(C)Cn1cc(C(C)(C)C)s/c1=N\C(=O)c1cc(C(F)(F)F)ccc1OC[C@@H]1CCN1` [Example 14, 2-[(2S)-azetidin-2-ylmethoxy]-N-[(2Z)-5-tert-butyl-3-isobutyl-1,3-thiazol-2(3H)-ylidene]-5-(trifluoromethyl)benzamide], for which the values for the Ki on rat CB2 receptors [1] and at human CB2 receptors were 13 nM and 44 nM, respectively. The EC50 on rat CB2 receptors [2] is 0.36 nM.
In the case of `CC(=O)OCCOc1ccc(C(F)(F)F)cc1C(=O)/N=c1\sc(C(C)(C)C)cn1CC(C)C` [Example 18, 2-[2-({[(2Z)-5-tert-butyl-3-isobutyl-1,3-thiazol-2(3H)-ylidene]amino}carbonyl)-4-(trifluoromethyl)phenoxy]ethyl acetate], the figures for the inhibition constant Ki at rat CB2 receptors [1] and at human CB2 receptors were 1.4 nM and 16 nM, respectively. For the same compound, the EC50 at rat CB2 receptors [2] came to 0.19 nM.
Taken in the same sequence, the figures for `CC(C)Cn1cc(C(C)(C)C)s/c1=N\C(=O)c1cc(C(F)(F)F)ccc1OCCO` [Example 19, N-[(2Z)-5-tert-butyl-3-isobutyl-1,3-thiazol-2(3H)-ylidene]-2-(2-hydroxyethoxy)-5-(trifluoromethyl)benzamide] were 0.15 nM, 0.73 nM and 0.13 nM.
Taken in the same sequence, the figures for `CCCCn1/c(=N/C(=O)c2cc(C(F)(F)F)ccc2OCC(C)(C)O)sc2ccncc21` [Example 21, N-[(2Z)-3-butyl[1,3]thiazolo[4,5-c]pyridin-2(3H)-ylidene]-2-(2-hydroxy-2-methylpropoxy)-5-(trifluoromethyl)benzamide] were 9.3 nM, 5.4 nM and 0.58 nM.
With `CCCCn1/c(=N/C(=O)c2cc(C(F)(F)F)ccc2OCCNC(C)=O)sc2ccncc21` [Example 25, 2-[2-(acetylamino)ethoxy]-N-[(2Z)-3-butyl[1,3]thiazolo[4,5-c]pyridin-2(3H)-ylidene]-5-(trifluoromethyl)benzamide], the figures for the Ki at rat CB2 receptors [1] and on human CB2 receptors were 3.6 nM and 1.5 nM, respectively. The EC50 at rat CB2 receptors [2] came out at 0.11 nM.
`CCCCn1/c(=N/C(=O)c2cc(C(F)(F)F)ccc2OC[C@H](C)O)sc2ccncc21` [Example 29, N-[(2Z)-3-butyl[1,3]thiazolo[4,5-c]pyridin-2(3H)-ylidene]-2-{[(2S)-2-hydroxypropyl]oxy}-5-(trifluoromethyl)benzamide]: the Ki turned out to be 2.5 nM on rat CB2 receptors [1] and 2 nM on human CB2 receptors. Besides, the 50% effective concentration (EC50) on rat CB2 receptors [2] turned out to be 1.4 nM.

By Ki is commonly meant the equilibrium dissociation constant of an inhibitor or competing ligand from its target. Read a high Ki as lower affinity. The term EC50 denotes the midpoint of the concentration-response curve.
